According to PubChem BioAssay (NCI):
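Exposure lasted 48 hours, with cells grown in 96-well plates and compounds tested at five concentrations. Here, GI50 denotes the concentration required for 50% inhibition of growth. At the TGI there is no net growth.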

What was measured:
Assay in all cases: inhibition of tumour cell growth, NCI panel, 48 h
HCT-15 colon = test system: HCT-15 colon
HL-60(TB) leukemia = test system: HL-60(TB) leukemia
HS 578T breast = test system: HS 578T breast
LOX IMVI melanoma = test system: LOX IMVI melanoma
RPMI-8226 leukemia = test system: RPMI-8226 leukemia
SF-295 CNS = test system: SF-295 CNS
SN12C renal = test system: SN12C renal
T-47D breast = test system: T-47D breast
NCI-H226 lung = test system: NCI-H226 lung
SR leukemia = test system: SR leukemia

Compound | TGI (HCT-15 colon) [µM] | TGI (HL-60(TB) leukemia) [µM] | TGI (HS 578T breast) [µM] | TGI (LOX IMVI melanoma) [µM] | TGI (RPMI-8226 leukemia) [µM] | TGI (SF-295 CNS) [µM] | TGI (SN12C renal) [µM] | TGI (T-47D breast) [µM] | TGI (NCI-H226 lung) [µM] | TGI (SR leukemia) [µM] | GI50 (HCT-15 colon) [µM] | GI50 (HS 578T breast) [µM] | GI50 (NCI-H226 lung) [µM] | GI50 (SF-295 CNS) [µM] | GI50 (SN12C renal) [µM]
CC1(C)O[C@H]2OC(CO)C(OS(C)(=O)=O)[C@H]2O1 (stereo partly specified) | > 100 | > 100 | > 100 | > 100 | > 100 | > 100 | > 100 | > 100 | – | – | – | – | – | – | –
O=C(Cc1ccccc1)N=Nc1c(O)[nH]c2ccccc12 | > 100 | – | > 100 | – | – | > 100 | > 100 | > 100 | > 100 | > 100 | – | – | – | – | –
COc1ccc(S(=O)(=O)Nc2ccc(-c3csc(N4C(=O)/C(=C/c5ccccc5)N=C4c4ccccc4)n3)cc2)cc1Cl | 49.5 | 87.4 | > 100 | > 100 | – | > 100 | > 100 | 61.9 | > 100 | > 100 | – | – | – | – | –
O=C1C2=C(CCCCC2)C2CCCCC12O (stereo unspecified) | – | > 100 | – | > 100 | > 100 | > 100 | > 100 | – | > 100 | > 100 | – | – | – | – | –
Cn1c(N=[N+]=[N-])cc(=O)n(C)c1=O | > 100 | – | > 100 | > 100 | > 100 | > 100 | > 100 | > 100 | > 100 | > 100 | – | – | – | – | –
Cc1oncc1NC1=CC(=O)C(=O)c2ccccc21 | 12.2 | 7.06 | 71.5 | 10.5 | – | 20.6 | 17.1 | 11.5 | 39.4 | 34.6 | – | – | – | – | –
CC(=O)Nc1ccc(-c2nnc(SCC(=O)Nc3cccc([N+](=O)[O-])c3)o2)cc1 | 46.2 | 58.2 | – | 23 | 75.8 | 32 | 33.2 | – | 23.6 | 89.2 | – | – | – | – | –
COC12OC3CC4(C)C(=CC3OC(OC(C)C1O)C2O)CCC1C4CCC2(C)C(c3ccc(=O)oc3)CCC12O (stereo unspecified) | 0.00553 | 0.00215 | – | 0.00281 | 0.00409 | 0.447 | 0.00153 | 0.0782 | 0.00676 | 0.00291 | – | – | – | – | –
CNc1ncnc2c1nnn2C | > 100 | > 100 | – | > 100 | > 100 | > 100 | > 100 | > 100 | > 100 | – | – | – | – | – | –
C[C@H](CN1CC(=O)NC(=O)C1)N1CC(=O)NC(=O)C1 | > 100 | – | – | > 100 | > 100 | > 100 | > 100 | – | > 100 | – | – | – | – | – | –
C=CCCC(On1c(-c2ccc(Cl)cc2)csc1=S)c1ccccc1 (stereo unspecified) | > 100 | 53.6 | > 100 | > 100 | > 100 | > 100 | > 100 | > 100 | 81.8 | – | – | – | – | – | –
NC(=O)CCC(NC(=O)c1cccc2c(=O)c3ccccc3[nH]c12)C(=O)O (stereo unspecified) | > 100 | > 100 | > 100 | > 100 | > 100 | > 100 | > 100 | – | > 100 | > 100 | – | – | – | – | –
COc1nc2ccc(CNc3ccc(C(=O)O)cc3)cc2nc1OC | > 10 | > 10 | > 10 | > 10 | > 10 | > 10 | > 10 | > 10 | > 10 | – | – | – | – | – | –
COc1cc2c(cc1OC(=O)c1cc3ccccc3[nH]1)N=C[C@@H]1CCCN1C2=O | > 34.2 | – | > 100 | – | 1.95 | 4.48 | 0.513 | 6.25 | 5.97 | 0.969 | – | – | – | – | –
CC(C)=CCCC1(Sc2ccccc2)C(=O)OCC1C=C(C)C (stereo unspecified) | > 100 | – | – | 30.1 | 48.1 | > 100 | 46.1 | > 100 | 73.7 | – | – | – | – | – | –
COc1cc(C2c3cc4c(cc3OC3(OC)COC(=O)C23)OCO4)cc(OC)c1OC (stereo unspecified) | 20.1 | 13.6 | > 100 | 23.4 | – | 0.479 | > 80.5 | > 100 | 8.16 | 4.8 | – | – | – | – | –
Clc1ccc2nc(CC3CCCC3)[nH]c2c1 | 22.9 | – | – | 29.9 | 50.3 | 34.7 | 36.8 | 72.5 | 38.4 | 26.5 | – | – | – | – | –
O=C1OC(c2ccc(Cl)cc2)(c2ccc(Cl)cc2)c2c1ccc1ccccc21 | > 100 | > 100 | – | > 100 | > 100 | > 100 | > 100 | – | > 100 | – | – | – | – | – | –
Cn1cc(-c2nc(-c3c[nH]c4ccncc34)cs2)c2cc(F)ccc21 | 2.71 | – | 4.74 | – | – | 3.02 | 3.32 | – | 3.9 | – | 1.33 | 2.21 | 1.92 | 1.64 | 1.68
NC(=O)c1ncn2c(=O)n(CCl)nnc12 | > 100 | – | > 100 | > 100 | > 100 | > 100 | > 100 | > 100 | > 100 | > 100 | – | – | – | – | –
CCCCCCCC(=O)OCC(C[As](=O)(O)O)OC(=O)CCCCCCC (stereo unspecified) | 28.5 | 38.9 | – | – | > 100 | 30.6 | 27.9 | – | 37.5 | 60.8 | – | – | – | – | –
Nc1nn(CC(O)CO)c(=O)s1 (stereo unspecified) | > 100 | > 100 | – | > 100 | > 100 | > 100 | > 100 | – | > 100 | > 100 | – | – | – | – | –
Cc1c(O)c(=O)ccn1CCc1c[nH]c2ccccc12 | > 100 | 53.3 | 54 | 17 | 29.8 | > 100 | – | 78 | – | 49.2 | – | – | – | – | –
CC(=O)NC(C)c1ccc(N=NN2CCCC2)cc1 (stereo unspecified) | > 100 | > 100 | > 100 | > 100 | – | > 100 | > 100 | > 100 | > 100 | – | – | – | – | – | –
